Assay results reported in ChEMBL document CHEMBL1132149, “Potent bivalent thrombin inhibitors: replacement of the scissile peptide bond at P(1)-P(1)' with arginyl ketomethylene isosteres” (J Med Chem, 1999).

Target: Prothrombin (Homo sapiens, UniProt P00734)
Experiment: Inhibitory constant against thrombin

SMILES	Ki [pM]
CC[C@@H](C)[C@H](NC(=O)[C@@H]1CCCN1C(=O)[C@H](CCC(=O)O)NC(=O)[C@H](Cc1ccc(O)cc1)NC(=O)[C@H](CC(=O)O)NC(=O)CNC(=O)CNC(=O)CNC(=O)CNC(=O)[C@H](C)NCC(=O)[C@H](CCCN=C(N)N)NC(=O)[C@@H]1CCCN1C(=O)[C@H](N)CC1CCCCC1)C(=O)N1CCC[C@H]1C(=O)N[C@@H](CCC(=O)O)C(=O)N[C@@H](CCC(=O)O)C(=O)N[C@@H](Cc1ccc(O)cc1)C(=O)N[C@@H](CC1CCCCC1)C(=O)N[C@@H](CC(=O)O)C(=O)O	1.5
CC[C@@H](C)[C@H](NC(=O)[C@@H]1CCCN1C(=O)[C@H](CCC(=O)O)NC(=O)[C@H](Cc1ccc(O)cc1)NC(=O)[C@H](CC(=O)O)NC(=O)CNC(=O)CNC(=O)CNC(=O)CNC(=O)CSCC(=O)[C@H](CCCN=C(N)N)NC(=O)[C@@H]1CCCN1C(=O)[C@H](N)CC1CCCCC1)C(=O)N1CCC[C@H]1C(=O)N[C@@H](CCC(=O)O)C(=O)N[C@@H](CCC(=O)O)C(=O)N[C@@H](C)C(=O)N[C@@H](CC1CCCCC1)C(=O)N[C@H](CCC(N)=O)C(=O)O	0.35
CC[C@@H](C)[C@H](NC(=O)[C@@H]1CCCN1C(=O)[C@H](CCC(=O)O)NC(=O)[C@H](Cc1ccc(O)cc1)NC(=O)[C@H](CC(=O)O)NC(=O)CNC(=O)CNC(=O)CNC(=O)CNC(=O)CN(CC(=O)[C@H](CCCN=C(N)N)NC(=O)[C@@H]1CCCN1C(=O)[C@H](N)CC1CCCCC1)C(C)=O)C(=O)N1CCC[C@H]1C(=O)N[C@@H](CCC(=O)O)C(=O)N[C@@H](CCC(=O)O)C(=O)N[C@@H](Cc1ccc(O)cc1)C(=O)N[C@@H](CC1CCCCC1)C(=O)N[C@@H](CC(=O)O)C(=O)O	1.7
CC[C@@H](C)[C@H](NC(=O)[C@@H]1CCCN1C(=O)[C@H](CCC(=O)O)NC(=O)[C@H](Cc1ccc(O)cc1)NC(=O)[C@H](CC(=O)O)NC(=O)CNC(=O)CNC(=O)CNC(=O)CNC(=O)CN(C)CC(=O)[C@H](CCCNC(=N)N)NC(=O)[C@@H]1CCCN1C(=O)[C@H](N)CC1CCCCC1)C(=O)N1CCC[C@H]1C(=O)N[C@@H](CCC(=O)O)C(=O)N[C@@H](CCC(=O)O)C(=O)N[C@@H](Cc1ccc(O)cc1)C(=O)N[C@@H](CC1CCCCC1)C(=O)N[C@@H](CC(=O)O)C(=O)O	2
CC[C@@H](C)[C@H](NC(=O)[C@H](CCC(=O)O)NC(=O)[C@H](CCC(=O)O)NC(=O)[C@H](Cc1ccccc1)NC(=O)[C@H](CC(=O)O)NC(=O)CNC(=O)CCCCCNC(=O)CNCC(=O)NCC(=O)[C@H](CCCNC(=N)N)NC(=O)[C@@H]1CCCN1C(=O)[C@H](N)Cc1ccccc1)C(=O)N1CCC[C@H]1C(=O)N[C@@H](CCC(=O)O)C(=O)N[C@@H](CCC(=O)O)C(=O)N[C@@H](Cc1ccc(O)cc1)C(=O)N[C@@H](CC(C)C)C(=O)N[C@@H](CCC(N)=O)C(=O)O	7300
CC[C@@H](C)[C@H](NC(=O)[C@@H]1CCCN1C(=O)[C@H](CCC(=O)O)NC(=O)[C@H](Cc1ccc(O)cc1)NC(=O)[C@H](CC(=O)O)NC(=O)CNC(=O)CNC(=O)CNC(=O)CNC(=O)CN(C)CC(=O)[C@H](CCCNC(=N)N)NC(=O)[C@@H]1CCCN1C(=O)[C@H](N)Cc1ccccc1)C(=O)N1CCC[C@H]1C(=O)N[C@@H](CCC(=O)O)C(=O)N[C@@H](CCC(=O)O)C(=O)N[C@@H](Cc1ccc(O)cc1)C(=O)N[C@@H](CC1CCCCC1)C(=O)N[C@@H](CC(=O)O)C(=O)O	35
CC[C@@H](C)[C@H](NC(=O)[C@@H]1CCCN1C(=O)[C@H](CCC(=O)O)NC(=O)[C@H](Cc1ccc(O)cc1)NC(=O)[C@H](CC(=O)O)NC(=O)CNC(=O)[C@H](CC(N)=O)NC(=O)CNC(=O)CNC(=O)CNC(=O)CN[C@@H]1CCCN1CC(=O)[C@H](CCCN=C(N)N)NC(=O)[C@@H]1CCCN1C(=O)[C@H](N)CC1CCCCC1)C(=O)N1CCC[C@H]1C(=O)N[C@@H](CCC(=O)O)C(=O)N[C@@H](CCC(=O)O)C(=O)N[C@@H](C)C(=O)N[C@@H](CC1CCCCC1)C(=O)N[C@H](CCC(=O)O)C(=O)O	5.7
CC[C@@H](C)[C@H](NC(=O)[C@@H]1CCCN1C(=O)[C@H](CCC(=O)O)NC(=O)[C@H](Cc1ccc(O)cc1)NC(=O)[C@H](CC(=O)O)NC(=O)CNC(=O)[C@H](CC(N)=O)NC(=O)CNC(=O)CNC(=O)CNC(=O)CNC(=O)CN(C)CC(=O)[C@H](CCCNC(=N)N)NC(=O)[C@@H]1CCCN1C(=O)[C@H](N)CC1CCCCC1)C(=O)N1CCC[C@H]1C(=O)N[C@@H](CCC(=O)O)C(=O)N[C@@H](CCC(=O)O)C(=O)N[C@@H](C)C(=O)N[C@@H](CC1CCCCC1)C(=O)N[C@H](CCC(=O)O)C(=O)O	0.87

Next, values leading:

Ki [pM]	SMILES
9.4	CC[C@@H](C)[C@H](NC(=O)[C@H](CCC(=O)O)NC(=O)[C@H](CCC(=O)O)NC(=O)[C@H](Cc1ccccc1)NC(=O)[C@H](CC(=O)O)NC(=O)CNC(=O)CNC(=O)CNC(=O)CNC(=O)CSCC(=O)[C@H](CCCN=C(N)N)NC(=O)[C@@H]1CCCN1C(=O)[C@H](N)Cc1ccccc1)C(=O)N1CCC[C@H]1C(=O)N[C@@H](CCC(=O)O)C(=O)N[C@@H](CCC(=O)O)C(=O)N[C@@H](Cc1ccc(O)cc1)C(=O)N[C@@H](CC(C)C)C(=O)N[C@@H](CCC(N)=O)C(=O)O
1060	CC[C@@H](C)[C@H](NC(=O)[C@H](CCC(=O)O)NC(=O)[C@H](CCC(=O)O)NC(=O)[C@H](Cc1ccccc1)NC(=O)[C@H](CC(=O)O)NC(=O)CNC(=O)CNC(=O)CNC(=O)CNC(=O)CSCC(=O)[C@H](CCCNC(=N)N)NC(=O)[C@@H]1CCCN1C(=O)[C@@H](Cc1ccccc1)NC(C)=O)C(=O)N1CCC[C@H]1C(=O)N[C@@H](CCC(=O)O)C(=O)N[C@@H](CCC(=O)O)C(=O)N[C@@H](Cc1ccc(O)cc1)C(=O)N[C@@H](CC(C)C)C(=O)N[C@@H](CCC(N)=O)C(=O)O
83	CC[C@@H](C)[C@H](NC(=O)[C@H](CCC(=O)O)NC(=O)[C@H](CCC(=O)O)NC(=O)[C@H](Cc1ccccc1)NC(=O)[C@H](CC(=O)O)NC(=O)CNC(=O)CNC(=O)CNC(=O)CNC(=O)CN(C)CC(=O)[C@H](CCCNC(=N)N)NC(=O)[C@@H]1CCCN1C(=O)[C@H](N)Cc1ccccc1)C(=O)N1CCC[C@H]1C(=O)N[C@@H](CCC(=O)O)C(=O)N[C@@H](CCC(=O)O)C(=O)N[C@@H](Cc1ccc(O)cc1)C(=O)N[C@@H](CC(C)C)C(=O)N[C@@H](CCC(N)=O)C(=O)O
